Laboratory results: ChEMBL document CHEMBL3639129, “Compounds having CRTH2 antagonist activity” (2013)

Biological target: T1, Prostaglandin D2 receptor 2 (Homo sapiens, UniProt Q9Y5Y4)
T1 sequence (Q9Y5Y4 whole entry): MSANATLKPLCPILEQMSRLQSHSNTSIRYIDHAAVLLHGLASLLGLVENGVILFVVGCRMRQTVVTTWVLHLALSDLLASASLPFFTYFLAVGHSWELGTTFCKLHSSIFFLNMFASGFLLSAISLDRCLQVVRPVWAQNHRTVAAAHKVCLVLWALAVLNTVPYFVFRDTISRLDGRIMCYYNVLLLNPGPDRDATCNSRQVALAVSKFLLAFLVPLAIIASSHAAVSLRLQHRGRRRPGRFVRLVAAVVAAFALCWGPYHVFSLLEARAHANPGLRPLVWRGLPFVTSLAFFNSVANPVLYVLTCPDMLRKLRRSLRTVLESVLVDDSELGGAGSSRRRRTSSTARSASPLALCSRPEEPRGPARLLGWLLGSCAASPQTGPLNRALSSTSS
Experiment: Radioligand Binding Assay: Radioligand binding assay using CRTH2.

With `Cc1c(Cc2cccnc2S(=O)(=O)c2ccc(F)cc2)c2cc(F)ccc2n1CC(=O)O` the Ki was 2 nM.

`Cc1c(Cc2cccnc2S(=O)(=O)c2ccc(Cl)cc2)c2cc(F)ccc2n1CC(=O)O` showed a Ki of 7 nM.
